Experimental data published in patent publication US20210094973A1, “HETEROCYCLIC COMPOUNDS” (Hoffmann-La Roche Inc., priority 2019, published 2021).

The compounds below were run against T1, MAGL (Homo sapiens, UniProt Q99685) (assay: 2-AG assay (MAGL inhibitory activity, hydrolysis of 2-arachidonoylglycerol followed by mass spectrometry)). Conditions: 15 min preincubation at RT, 8 μM 2-arachidonoylglycerol, 30 min at RT, arachidonic acid by MS.
T1 sequence (Q99685 1-303): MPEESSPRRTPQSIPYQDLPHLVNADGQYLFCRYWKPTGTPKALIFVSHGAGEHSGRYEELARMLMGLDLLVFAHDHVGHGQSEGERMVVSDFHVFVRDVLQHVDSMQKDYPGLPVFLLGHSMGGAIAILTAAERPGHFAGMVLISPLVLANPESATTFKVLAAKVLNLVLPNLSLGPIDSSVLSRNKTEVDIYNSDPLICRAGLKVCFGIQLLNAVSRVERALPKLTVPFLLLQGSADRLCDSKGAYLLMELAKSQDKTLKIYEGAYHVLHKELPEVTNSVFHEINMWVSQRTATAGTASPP
Type: biochemical
Experimental: Compounds were profiled for MAGL inhibitory activity by determining the enzymatic activity by following the hydrolysis of the natural substrate 2-arachidonoylglycerol (2-AG) resulting in arachidonic acid, which can be followed by mass spectrometry. This assay is hereinafter abbreviated “2-AG assay”.
The 2-AG assay was carried out in 384 well assay plates (PP, Greiner Cat #784201) in a total volume of 20 μL. Compound dilutions were made in 100% DMSO (VWR Chemicals 23500.297) in a polypropylene plate in 3-fold dilution steps to give a final concentration range in the assay from 12.5 μM to […]. 0.25 μL compound dilutions (100% DMSO) were added to 9 μL MAGL in assay buffer (50 mM TRIS (GIBCO, 15567-027), 1 mM EDTA (Fluka, 03690-100 mL), 0.01% (v/v) Tween. After shaking, the plate was incubated for 15 min at RT. To start the reaction, 10 μL 2-arachidonoylglycerol in assay buffer was added. The final concentrations in the assay was […] and 8 μM 2-arachidonoylglyerol. After shaking and 30 min incubation at RT, the reaction was quenched by the addition of 40 μL of ACN containing 4 μM of d8-arachidonic acid. The amount of arachidonic acid was traced by an online SPE system (Agilent Rapidfire) coupled to a triple quadrupole mass spectrometer (Agilent 6460). A C18 SPE cartridge (G9205A) was used in an ACN/water liquid setup. The mass spectrometer was operated in negative electrospray mode following the mass transitions 303.1→259.1 for arachidonic acid and 311.1→267.0 for d8-arachidonic acid. The activity of the compounds was calculated based on the ratio of intensities [arachidonic acid/d8-arachidonic acid].

SMILES | IC50 [nM]
COc1cc(COC2CN(C(=O)N3CC[C@@H]4OCC(=O)N[C@@H]4C3)C2)ccc1F [Example 30, (4aR,8aS)-6-(3-((4-Fluoro-3-methoxybenzyl)oxy)azetidine-1-carbonyl)hexahydro-2H-pyrido[4,3-b][1,4]oxazin-3(4H)-one] | 77.3
CC1C(OCc2c(F)cccc2C(F)(F)F)CN1C(=O)N1CC[C@@H]2OCC(=O)N[C@@H]2C1 (single isomer, unassigned) [Example 29] | 406
O=C1CO[C@H]2CCN(C(=O)[C@H]3C[C@H](OCc4ccc(C(F)(F)F)cc4Cl)C3)C[C@H]2N1 [Example 42, (4aR,8aS)-6-(3-((2-Chloro-4-(trifluoromethyl)benzyl)oxy)cyclobutane-1-carbonyl)hexahydro-2H-pyrido[4,3-b][1,4]oxazin-3(4H)-one] | 261
O=C1CO[C@H]2CCN(C(=O)N3CCC(OCc4ccc(F)cc4Cl)CC3)C[C@H]2N1 [Example 25, (4aR,8aS)-6-(4-((2-Chloro-4-fluorobenzyl)oxy)piperidine-1-carbonyl)hexahydro-2H-pyrido[4,3-b][1,4]oxazin-3(4H)-one] | 72.5
O=C1CO[C@H]2CCN(C(=O)N3CCC(c4ccnnc4C(F)(F)F)CC3)C[C@H]2N1 [Example 47, (4aR,8aS)-6-(4-(3-(Trifluoromethyl)pyridazin-4-yl)piperidine-1-carbonyl)hexahydro-2H-pyrido[4,3-b][1,4]oxazin-3(4H)-one] | 90.9
O=C1CO[C@H]2CCN(C(=O)N3CCC(OCc4ccc(C(F)(F)F)cc4)CC3)C[C@H]2N1 [Example 24, (4aR,8aS)-6-(4-((4-(Trifluoromethyl)benzyl)oxy)piperidine-1-carbonyl)hexahydro-2H-pyrido[4,3-b][1,4]oxazin-3(4H)-one] | 62.1
Cn1ncc2cc(C3CN(C(=O)N4CC[C@@H]5OCC(=O)N[C@@H]5C4)C3)ccc21 [Example 17, (4aR,8aS)-6-(3-(1-Methyl-1H-indazol-5-yl)azetidine-1-carbonyl)hexahydro-2H-pyrido[4,3-b][1,4]oxazin-3(4H)-one] | 168
O=C1CO[C@H]2CCN(C(=O)C3CC(OCc4ccc(C(F)(F)F)cc4Cl)C3)C[C@H]2N1 (stereo partly drawn) [Example 41, (4aR,8aS)-6-(3-((2-Chloro-4-(trifluoromethyl)benzyl)oxy)cyclobutane-1-carbonyl)hexahydro-2H-pyrido[4,3-b][1,4]oxazin-3(4H)-one] | 774
O=C1CO[C@H]2CCN(C(=O)N3CC(OCc4ccc(C(F)(F)F)cn4)C3)C[C@H]2N1 [Example 43, (4aR,8aS)-6-(3-((5-(Trifluoromethyl)pyridin-2-yl)methoxy)azetidine-1-carbonyl)hexahydro-2H-pyrido[4,3-b][1,4]oxazin-3(4H)-one] | 159
O=C1CO[C@H]2CCN(C(=O)N3CC(c4nnc(-c5ccc(F)cc5F)[nH]4)C3)C[C@H]2N1 [Example 48, (4aR,8aS)-6-[3-[5-(2,4-Difluorophenyl)-4H-1,2,4-triazol-3-yl]azetidine-1-carbonyl]-4,4a,5,7,8,8a-hexahydropyrido[4,3-b][1,4]oxazin-3-one] | 333
Cc1c(CC2CCN(C(=O)N3CC[C@@H]4OCC(=O)N[C@@H]4C3)CC2)cncc1C1CC1 [Example 23, (4aR,8aS)-6-(4-((5-Cyclopropyl-4-methylpyridin-3-yl)methyl)piperidine-1-carbonyl)hexahydro-2H-pyrido[4,3-b][1,4]oxazin-3(4H)-one] | 119
O=C1CO[C@H]2CCN(C(=O)N3CC(c4cccc(OC(F)(F)F)c4)C3)C[C@H]2N1 [Example 19, (4aR,8aS)-6-(3-(3-(Trifluoromethoxy)phenyl)azetidine-1-carbonyl)hexahydro-2H-pyrido[4,3-b][1,4]oxazin-3(4H)-one] | 44.1

These reach a lower IC50. Values come first.

IC50 [nM] | SMILES
8 | Cc1ccc(C(F)(F)F)cc1COC1CN(C(=O)N2CC[C@@H]3OCC(=O)N[C@@H]3C2)C1 [Example 34, (4aR,8aS)-6-(3-((2-Methyl-5-(trifluoromethyl)benzyl)oxy)azetidine-1-carbonyl)hexahydro-2H-pyrido[4,3-b][1,4]oxazin-3(4H)-one]
42 | O=C1CO[C@H]2CCN(C(=O)N3CC(c4ccc(C5CCOC5)cc4)C3)C[C@H]2N1 (single isomer, unassigned) [Example 2, (4aR,8aS)-6-[3-[4-[(3S or R)-Tetrahydrofuran-3-yl]phenyl]azetidine-1-carbonyl]-4,4a,5,7,8,8a-hexahydropyrido[4,3-b][1,4]oxazin-3-one]
9.4 | O=C1CO[C@H]2CCN(C(=O)N3CCC(Cc4ccc(C(F)(F)F)cc4C(F)(F)F)CC3)C[C@H]2N1 [Example 36, (4aR,8aS)-6-[4-[[2,4-bis(Trifluoromethyl)phenyl]methyl]piperidine-1-carbonyl]-4,4a,5,7,8,8a-hexahydropyrido[4,3-b][1,4]oxazin-3-one]
33.1 | O=C1CO[C@H]2CCN(C(=O)N3CC(c4ccc(C5CCOC5)cc4)C3)C[C@H]2N1 (single isomer, unassigned) [Example 1, (4aR,8aS)-6-[3-[4-[(3R or S)-Tetrahydrofuran-3-yl]phenyl]azetidine-1-carbonyl]-4,4a,5,7,8,8a-hexahydropyrido[4,3-b][1,4]oxazin-3-one]
5.9 | O=C1CO[C@H]2CCN(C(=O)N3CC(OCc4ccc(Cl)cc4OC(F)(F)F)C3)C[C@H]2N1 [Example 33, (4aR,8aS)-6-(3-((4-Chloro-2-(trifluoromethoxy)benzyl)oxy)azetidine-1-carbonyl)hexahydro-2H-pyrido[4,3-b][1,4]oxazin-3(4H)-one]
0.6 | O=C1CO[C@H]2CCN(C(=O)N3CC(c4ccc(OC5CCCC5)cc4)C3)C[C@H]2N1 [Example 13, (4aR,8aS)-6-(3-(4-(Cyclopentyloxy)phenyl)azetidine-1-carbonyl)hexahydro-2H-pyrido[4,3-b][1,4]oxazin-3(4H)-one]
7.1 | CC(C)Oc1ccc(C2CN(C(=O)N3CC[C@@H]4OCC(=O)N[C@@H]4C3)C2)cc1 [Example 4, (4aR,8aS)-6-[3-(4-Isopropoxyphenyl)azetidine-1-carbonyl]-4,4a,5,7,8,8a-hexahydropyrido[4,3-b][1,4]oxazin-3-one]
0.3 | CC(C)(Oc1ccc(C2CN(C(=O)N3CC[C@@H]4OCC(=O)N[C@@H]4C3)C2)cc1)C(F)(F)F [Example 12, (4aR,8aS)-6-[3-[4-(2,2,2-Trifluoro-1,1-dimethyl-ethoxy)phenyl]azetidine-1-carbonyl]-4,4a,5,7,8,8a-hexahydropyrido[4,3-b][1,4]oxazin-3-one]
26.4 | CC1(C)CCOc2ccc(C3CN(C(=O)N4CC[C@@H]5OCC(=O)N[C@@H]5C4)C3)cc21 [Example 14, (4aR,8aS)-6-(3-(4,4-Dimethylchroman-6-yl)azetidine-1-carbonyl)hexahydro-2H-pyrido[4,3-b][1,4]oxazin-3(4H)-one]
2.9 | O=C1CO[C@H]2CCN(C(=O)N3CC(c4ccc(C5CC(F)(F)C5)cc4)C3)C[C@H]2N1 [Example 6, (4aR,8aS)-6-[3-[4-(3,3-Difluorocyclobutyl)phenyl]azetidine-1-carbonyl]-4,4a,5,7,8,8a-hexahydropyrido[4,3-b][1,4]oxazin-3-one]
31.7 | Cc1cc(CC2CCN(C(=O)N3CC[C@@H]4OCC(=O)N[C@@H]4C3)CC2)cnc1C(F)(F)F [Example 37, (4aR,8aS)-6-(4-((5-Methyl-6-(trifluoromethyl)pyridin-3-yl)methyl)piperidine-1-carbonyl)hexahydro-2H-pyrido[4,3-b][1,4]oxazin-3(4H)-one]
8.7 | O=C1CO[C@H]2CCN(C(=O)N3CC(c4ccc(OCC5CC5)cc4)C3)C[C@H]2N1 [Example 15, (4aR,8aS)-6-(3-(4-(Cyclopropylmethoxy)phenyl)azetidine-1-carbonyl)hexahydro-2H-pyrido[4,3-b][1,4]oxazin-3(4H)-one]
9.1 | O=C1CO[C@H]2CCN(C(=O)N3CC(c4nsc(-c5ccc(Cl)cc5Cl)n4)C3)C[C@H]2N1 [Example 7, (4aR,8aS)-6-[3-[5-(2,4-Dichlorophenyl)-1,2,4-thiadiazol-3-yl]azetidine-1-carbonyl]-4,4a,5,7,8,8a-hexahydropyrido[4,3-b][1,4]oxazin-3-one]
27.8 | O=C1CO[C@H]2CCN(C(=O)N3CC(OCc4c(Cl)cccc4Cl)C3)C[C@H]2N1 [Example 21, (4aR,8aS)-6-(3-((2,6-Dichlorobenzyl)oxy)azetidine-1-carbonyl)hexahydro-2H-pyrido[4,3-b][1,4]oxazin-3(4H)-one]
